Test results: patent US8530701B2, “High purity 2-[4-(3- OR 2-fluorobenzyloxy)benzylamino]propanamides and methods of use thereof” (priority 2007, dated 2013)
Where two headings read alike, the source gives them in different places.

Tests used:
[1] = test system: human neuroblastoma cell line SH-SY-5Y; assay: Cytotoxicity assay in human neuroblastoma cell line SH-SY-5Y; assay type: cell-based
Procedure: (§1) At time zero, the cells were seeded at 1.10^4/cm^2 in 96 well plates in DMEM growth medium+10% heat inactivated FBS+2 mM 1-Glutamine+100 U/mL-100 μg/mL Penicillin/Streptomycin.
(§2) After 72 hours at subconfluent phase of growth, the medium was removed and cells were incubated for 24 hours at 37° C. in 180 μL of neurobasal medium+2 mM 1-Glutamine (Life Techonologies) with or without test compounds (20 μL, at least 5 concentrations in triplicate).
(§3) At the end of incubation, 20 μL of Alamar Blue dye (AlamarBlue™ Assay Kit, Promega) were directly added to the cell medium.
(§4) Four hours after, the cytotoxicity was assessed by measuring the fluorescence at 530 nm excitation and 595 nm emission using Tecan Spectrafluor plate reader.
(§5) Before and at the end of the treatment, the cultures were monitored microscopically by an Olympus IX70 inverted light microscope matched to an Image Analyzer (Image Pro Plus, 5.1) to evaluate the cellular morphology.
(§6) Results are expressed in Table 1 as concentration inducing 50% of mortality.

[2] = biological target: T1, CYP3A4 (Homo sapiens, UniProt P08684); assay: Cytochrome P450 assay (Gentest Kit), CYP3A4; assay type: in vitro ADME
T1 construct: purchased Gentest
T1 sequence (P08684 whole entry): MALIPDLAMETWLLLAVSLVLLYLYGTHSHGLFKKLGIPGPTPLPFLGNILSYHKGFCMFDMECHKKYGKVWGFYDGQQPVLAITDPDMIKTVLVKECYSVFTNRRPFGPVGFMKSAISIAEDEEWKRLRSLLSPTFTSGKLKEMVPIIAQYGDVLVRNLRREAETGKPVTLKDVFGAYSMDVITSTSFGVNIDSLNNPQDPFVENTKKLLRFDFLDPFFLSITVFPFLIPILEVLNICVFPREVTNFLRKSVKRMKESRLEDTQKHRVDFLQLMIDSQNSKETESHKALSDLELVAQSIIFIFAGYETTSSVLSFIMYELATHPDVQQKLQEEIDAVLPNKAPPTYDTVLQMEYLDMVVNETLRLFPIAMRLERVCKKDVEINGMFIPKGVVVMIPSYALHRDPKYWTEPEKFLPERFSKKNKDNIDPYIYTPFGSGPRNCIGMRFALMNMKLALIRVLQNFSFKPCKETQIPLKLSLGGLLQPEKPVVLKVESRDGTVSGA
Procedure: (§7) Inhibition of the five most important Cytochrome P450 isoforms (CYP1A2, CYP2C9, CYP2C19, CYP2D6 and CYP3A4), involved in drug metabolism, was measured using specific substrates that become fluorescent upon CYP metabolism (Gentest Kit assay).
(§8) Compounds were tested in a 96-well plate containing incubation/NADPH regenerating buffer. Specific human recombinant isoenzymes and substrates were added and incubated at 37° C. for 15 min for CYP1A2/CEC, 40 min for CYP2E1/MFC, 45 min for CYP2C9/MFC and 30 min for the others CYP450.
(§9) The specific substrates were the following: 3-cyano-7-ethoxycoumarin (CYP2C19 and CYP1A2), • 7-methoxy-4-trifluoromethylcoumarin (CYP2C9), • 3[2(N,N-diethyl-N-methylamino)ethyl]-7-methoxy-4-methylcoumarin (CYP2D6) • benzylphenylcoumarin (CYP3A4)

[3] = biological target: T2, CYP2D6 (Homo sapiens, UniProt P10635); assay: Cytochrome P450 assay (Gentest Kit), CYP2D6; assay type: in vitro ADME
T2 construct: purchased Gentest
T2 sequence (P10635 whole entry): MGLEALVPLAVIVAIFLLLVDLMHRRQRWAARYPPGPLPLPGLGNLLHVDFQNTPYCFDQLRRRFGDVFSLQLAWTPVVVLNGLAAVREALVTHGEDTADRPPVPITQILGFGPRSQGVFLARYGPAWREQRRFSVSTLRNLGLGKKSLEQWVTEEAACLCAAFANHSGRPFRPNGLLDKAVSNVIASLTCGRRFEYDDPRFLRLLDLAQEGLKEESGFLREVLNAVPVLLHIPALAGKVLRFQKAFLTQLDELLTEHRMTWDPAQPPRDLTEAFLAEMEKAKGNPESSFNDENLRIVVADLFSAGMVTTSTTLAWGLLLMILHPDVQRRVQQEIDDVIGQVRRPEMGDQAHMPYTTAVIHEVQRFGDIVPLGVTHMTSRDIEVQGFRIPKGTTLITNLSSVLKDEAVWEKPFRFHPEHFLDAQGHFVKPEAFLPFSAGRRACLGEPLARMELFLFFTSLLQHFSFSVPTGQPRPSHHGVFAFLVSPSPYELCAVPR
Procedure: as §7, §8, §9

[4] = biological target: T3, CYP2C19 (Homo sapiens, UniProt P33261); assay: Cytochrome P450 assay (Gentest Kit), CYP2C19; assay type: in vitro ADME
T3 construct: purchased Gentest
T3 sequence (P33261 whole entry): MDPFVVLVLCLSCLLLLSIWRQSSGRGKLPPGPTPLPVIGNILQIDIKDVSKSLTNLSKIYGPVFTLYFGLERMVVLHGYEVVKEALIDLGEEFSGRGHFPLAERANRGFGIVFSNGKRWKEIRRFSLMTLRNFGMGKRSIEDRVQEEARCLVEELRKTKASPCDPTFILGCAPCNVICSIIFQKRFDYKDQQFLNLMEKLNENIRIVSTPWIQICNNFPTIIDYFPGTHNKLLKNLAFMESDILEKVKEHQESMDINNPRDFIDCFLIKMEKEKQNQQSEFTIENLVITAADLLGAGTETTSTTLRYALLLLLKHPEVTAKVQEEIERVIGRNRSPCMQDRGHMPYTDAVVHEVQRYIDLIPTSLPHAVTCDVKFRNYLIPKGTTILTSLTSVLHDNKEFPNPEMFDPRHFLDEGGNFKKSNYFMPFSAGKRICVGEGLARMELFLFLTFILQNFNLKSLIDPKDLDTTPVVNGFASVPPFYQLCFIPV
Procedure: as §7, §8, §9

[5] = biological target: T4, CYP2C9 (Homo sapiens, UniProt P11712); assay: Cytochrome P450 assay (Gentest Kit), CYP2C9; assay type: in vitro ADME
T4 construct: purchased Gentest
T4 sequence (P11712 whole entry): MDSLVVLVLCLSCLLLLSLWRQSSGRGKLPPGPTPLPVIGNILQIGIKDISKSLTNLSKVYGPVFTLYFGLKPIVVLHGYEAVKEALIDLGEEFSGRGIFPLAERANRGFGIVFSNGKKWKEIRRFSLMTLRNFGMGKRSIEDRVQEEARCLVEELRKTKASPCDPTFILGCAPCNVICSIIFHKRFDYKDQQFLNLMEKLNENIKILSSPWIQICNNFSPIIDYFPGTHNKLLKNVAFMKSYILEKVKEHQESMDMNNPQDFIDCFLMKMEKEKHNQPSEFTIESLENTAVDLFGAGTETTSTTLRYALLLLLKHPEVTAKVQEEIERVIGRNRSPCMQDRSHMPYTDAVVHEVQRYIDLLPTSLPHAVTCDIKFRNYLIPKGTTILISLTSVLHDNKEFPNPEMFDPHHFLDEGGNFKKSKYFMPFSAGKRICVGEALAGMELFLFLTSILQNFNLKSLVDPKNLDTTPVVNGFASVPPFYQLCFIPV
Procedure: as §7, §8, §9

[6] = biological target: T5, CYP1A2 (Homo sapiens, UniProt P05177); assay: in vitro; assay type: in vitro ADME
T5 construct: purchased Gentest
T5 sequence (P05177 1-516): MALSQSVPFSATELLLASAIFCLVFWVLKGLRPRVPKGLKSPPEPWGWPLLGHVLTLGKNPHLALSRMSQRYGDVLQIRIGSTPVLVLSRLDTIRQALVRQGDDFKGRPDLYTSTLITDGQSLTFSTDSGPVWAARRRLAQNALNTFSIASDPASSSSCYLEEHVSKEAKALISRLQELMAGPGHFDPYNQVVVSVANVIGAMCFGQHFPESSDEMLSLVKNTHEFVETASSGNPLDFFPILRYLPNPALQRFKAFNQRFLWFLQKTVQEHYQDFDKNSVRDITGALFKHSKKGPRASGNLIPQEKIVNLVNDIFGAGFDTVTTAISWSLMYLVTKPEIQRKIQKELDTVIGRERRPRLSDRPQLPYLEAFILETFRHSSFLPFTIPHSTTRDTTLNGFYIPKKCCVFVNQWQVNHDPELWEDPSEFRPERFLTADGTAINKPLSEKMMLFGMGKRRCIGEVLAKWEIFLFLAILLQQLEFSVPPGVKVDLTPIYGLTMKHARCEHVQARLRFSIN
Procedure: as §7, §8, §9

[7] = biological target: T6, recombinant HERG channel (Homo sapiens, UniProt Q12809)
T6 sequence (Q12809 whole entry): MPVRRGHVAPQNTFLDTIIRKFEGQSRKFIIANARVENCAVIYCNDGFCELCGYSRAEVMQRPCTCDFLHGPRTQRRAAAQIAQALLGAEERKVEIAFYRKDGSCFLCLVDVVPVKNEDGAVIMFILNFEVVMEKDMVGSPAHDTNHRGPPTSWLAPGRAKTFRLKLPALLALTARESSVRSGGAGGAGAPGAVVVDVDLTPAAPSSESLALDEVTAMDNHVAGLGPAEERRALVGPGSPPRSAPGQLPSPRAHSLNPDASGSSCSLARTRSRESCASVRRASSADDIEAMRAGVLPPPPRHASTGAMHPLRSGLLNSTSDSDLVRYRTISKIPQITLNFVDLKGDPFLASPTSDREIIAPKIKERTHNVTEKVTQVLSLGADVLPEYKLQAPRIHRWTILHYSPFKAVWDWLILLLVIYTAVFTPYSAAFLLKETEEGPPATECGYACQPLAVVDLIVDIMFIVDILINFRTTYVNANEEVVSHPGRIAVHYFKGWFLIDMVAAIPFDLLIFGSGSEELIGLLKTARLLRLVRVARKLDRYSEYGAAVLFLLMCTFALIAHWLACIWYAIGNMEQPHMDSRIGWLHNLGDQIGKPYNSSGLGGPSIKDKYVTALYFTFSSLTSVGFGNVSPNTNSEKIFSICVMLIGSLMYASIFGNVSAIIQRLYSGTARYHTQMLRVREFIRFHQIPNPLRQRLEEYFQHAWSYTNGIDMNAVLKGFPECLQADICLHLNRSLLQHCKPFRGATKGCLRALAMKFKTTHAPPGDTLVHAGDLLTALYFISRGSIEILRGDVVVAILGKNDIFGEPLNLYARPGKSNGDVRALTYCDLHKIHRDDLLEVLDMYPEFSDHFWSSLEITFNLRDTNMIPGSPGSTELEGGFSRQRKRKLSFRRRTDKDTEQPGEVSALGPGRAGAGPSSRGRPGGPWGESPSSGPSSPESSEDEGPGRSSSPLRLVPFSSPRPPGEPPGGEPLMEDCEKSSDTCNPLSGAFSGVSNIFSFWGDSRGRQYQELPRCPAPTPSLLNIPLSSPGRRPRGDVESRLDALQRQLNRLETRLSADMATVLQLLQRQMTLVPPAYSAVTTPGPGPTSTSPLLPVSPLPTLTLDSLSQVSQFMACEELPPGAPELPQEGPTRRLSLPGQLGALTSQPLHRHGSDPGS
Procedure: (§10) The inhibition of HERG current was tested in CHO cells stably expressing recombinant HERG channel.
(§11) To evaluate the effect of the test compounds on HERG currents, cells were clamped at −80 mV, depolarised to 0 mV for 5 seconds allowing activation of HERG current and repolarised to −50 mV during 5 seconds allowing HERG tail current to deactivate. This procedure was repeated at a frequency of 0.06 Hz. The current amplitude upon repolarisation (HERG tail current) was measured before and after exposure to the test compound.
(§12) Inhibition of current was calculated as the difference between the amplitude of HERG tail current amplitude measured at the end of external bath perfusion period and HERG tail current measured at the end of test compound perfusion period (when steady-state effect is reached) divided by control HERG tail current.
(§13) Drug concentration-inhibition curves were obtained by plotting tonic blocks versus drug concentrations. Dose-response curves were fitted to the tonic block data, according to the logistic equation: y=A2+(A1−A2)/[1+(x/IC50)^p].

[8] = test system: Male CD1 mice; assay type: in vivo
Procedure: The maximal electroshock test (MES) is used commonly in the screening of anti-epileptic drugs in rodent models.
Animals and Apparatus: Male CD1 mice weighing 25 g were used. […] The stimulus was delivered intra-aurally through clip electrodes in mice (0.7 seconds of a 40 mA shock, with a pulse train of 80 Hz having a pulse duration of 0.4 ms). The acute effect of compounds administered intraperitoneally or orally 15-60 min before MES induction were examined and compared with a vehicle control group. Ten mice were studied per group. Complete suppression of the hindlimb tonic extensor component of seizures was taken as evidence of anticonvulsant activity.
The compounds of the invention were administered orally or intraperitoneally at the doses of 3-30 mg/kg.
The results are expressed in Tables 3 and 4 as % of protection.

[9] = Cytotoxicity assay in human neuroblastoma cell line SH-SY-5Y; assay type: cell-based; conditions: human, SH-SY-5Y neuroblastoma cells; SH-SY-5Y, 24 hours incubation, Alamar Blue; concentration inducing 50% of mortality
Procedure: as §1, §2, §3, §4, §5, §6

[10] = biological target: T6, recombinant HERG channel; assay: HERG current in transfected CHO cell lines
Procedure: as §10, §11, §12, §13

[11] = Table 1, human recombinant isoenzyme, substrate benzylphenylcoumarin, read-out: CYP3A4 IC50
[12] = human recombinant isoenzyme, fluorescent substrate, read-out: CYP2D6 IC50
[13] = human recombinant isoenzyme, substrate 3-cyano-7-ethoxycoumarin, read-out: CYP2C19 IC50
[14] = human recombinant isoenzyme, substrate 7-methoxy-4-trifluoromethylcoumarin, read-out: CYP2C9 IC50

C[C@@H](NCc1ccc(OCc2cccc(F)c2)c(Cc2cccc(F)c2)c1)C(N)=O (racemic) [Impurity (IIc, II′c), (R,S)-2-[3-(3-fluorobenzyl)-4-(3-fluorobenzyloxy)-benzylamino]propanamide methanesulfonate]
IC50 [1]: 11800 nM
IC50 [2]: 60 nM
IC50 [3]: 310 nM
IC50 [4]: 170 nM
IC50 [5]: 5570 nM
IC50 [6]: 28000 nM
IC50 [7]: < 1000 nM

C[C@@H](NCc1ccc(OCc2ccccc2F)c(Cc2ccccc2F)c1)C(N)=O (racemic) [Impurity (IId, II′d), (R,S)-2-[3-(2-fluorobenzyl)-4-(2-fluorobenzyloxy)-benzylamino]propanamide methanesulfonate]
IC50 [1]: 14300 nM
IC50 [2]: 60 nM
IC50 [3]: 1190 nM
IC50 [4]: 30 nM
IC50 [5]: 4960 nM
IC50 [6]: 39400 nM
IC50 [7]: < 1000 nM

CS(=O)(=O)O.C[C@H](NCc1ccc(OCc2cccc(F)c2)c(Cc2cccc(F)c2)c1)C(N)=O [Impurity (IIc), (S)-2-[3-(3-fluorobenzyl)-4-(3-fluorobenzyloxy)-benzylamino]propanamide methanesulfonate]
MES dead/live ([8]; mice, 3 mg/kg ip): 5/10
MES dead/live ([8]; mice, 10 mg/kg ip): 4/10
MES dead/live ([8]; mice, 30 mg/kg ip): 4/10
pharmacological activity, i.e. protection from convulsions, in MES test (in words) ([8]; mice, ip, from 3 mg/kg): without any pharmacological activity
mortality in the mice MES test (in words) ([8]; starting from 3 mg/kg ip): increases

CS(=O)(=O)O.C[C@H](NCc1ccc(OCc2ccccc2F)c(Cc2ccccc2F)c1)C(N)=O [Impurity (IId), (S)-2-[3-(2-fluorobenzyl)-4-(2-fluorobenzyloxy)-benzylamino]propanamide methanesulfonate]
MES dead/live ([8]; mice, 10 mg/kg p.o.): 0/10
MES dead/live ([8]; mice, 20 mg/kg p.o.): 0/10
protection of mice from convulsions in MES test (in words) ([8]; p.o. at 10 and 20 mg/kg, compared with same doses of ralfinamide methanesulfonate): doesn't protect mice from convulsions

C[C@@H](NCc1ccc(OCc2cccc(F)c2)c(Cc2cccc(F)c2)c1)C(N)=O [Impurity (II′c), (R)-2-[3-(3-fluorobenzyl)-4-(3-fluorobenzyloxy)-benzylamino]propanamide methanesulfonate]
IC50 at 24 h [9]: 8810 nM
IC50 [2, 11]: 90 nM
IC50 [3, 12]: 150 nM
IC50 [4, 13]: 150 nM
IC50 [5, 14]: 4940 nM
IC50 ([6]; human recombinant isoenzyme, substrate 3-cyano-7-ethoxycoumarin, read-out: CYP1A2 IC50): 29200 nM
IC50 [10]: < 1000 nM

C[C@@H](NCc1ccc(OCc2ccccc2F)c(Cc2ccccc2F)c1)C(N)=O [Impurity (II′d), (R)-2-[3-(2-fluorobenzyl)-4-(2-fluorobenzyloxy)-benzylamino]propanamide methanesulfonate]
IC50 at 24 h [9]: 11500 nM
IC50 [2, 11]: 70 nM
IC50 [3, 12]: 620 nM
IC50 [4, 13]: 30 nM
IC50 [5, 14]: 4340 nM
IC50 at 15 min ([6]; recombinant human CYP1A2, probe 3-cyano-7-ethoxycoumarin, human recombinant isoenzyme, substrate 3-cyano-7-ethoxycoumarin): > 40000 nM
IC50 [10]: < 1000 nM

CS(=O)(=O)O.C[C@H](NCc1ccc(OCc2cccc(F)c2)cc1)C(N)=O [Safinamide methanesulfonate (Ic), (S)-2-[4-(3-fluorobenzyloxy)benzylamino]propanamide methanesulfonate, reference compound]
MES % protection ([8]; mice, 3 mg/kg ip): 50%
MES % protection ([8]; mice, 10 mg/kg ip): 100%
MES % protection ([8]; mice, 30 mg/kg ip): 100%
